# Measurements from patent US20250270564A1, “EXTRACELLULAR VESICLE SECRETION BOOSTER FOR BOOSTING EXTRACELLULAR VESICLE SECRETION, AND USE THEREOF” (THEORIA SCIENCE INC., priority 2021, published 2025).
# Legend:
# HCT116 = assay: Amount of secreted EVs (ExoScreen / NTA method); format: cell-based, human; details: inhibitor at 10 nmol/L or 100 nmol/L, FIG. 12
# Experimental: For preparation of a secreted EV sample for the ExoScreen method, cells were cultured and supernatant was collected as follows. First, cells were seeded in a 96-well plate using a serum-supplemented medium (the medium according to the type of cells) at 5×10^3 cells/medium 0.1 mL/well (Day 0). After incubation for 24 hours (Day 1), […], and the cells were transfected with the miRNA using a transfection agent (product name Dhermafect1, manufactured by Dhermacon, the same shall apply hereinafter) according to the instructions for use. […]
# (§1) For preparation of a secreted EV sample for the NTA method, cells were cultured and supernatant was collected and purified as follows. […] After collecting the supernatant, the number of cells in each well was counted. […]
# EV detection was performed using an exosome marker CD9 or C63 according to the ExoScreen method. EV detection was performed using an AlphaLISA reagent (Perkin Elmer) composed of AlphaScreen streptavidin-coated donor beads (6760002), AlphaLISA unconjugated acceptor beads (6062011), and an AlphaLISA universal buffer (AL001F), a 96-well half-area white plate (6005560, Perkin Elmer), and a detection device EnSpire Alpha 2300 Mutilabel plate reader (Perkin Elmer). […] Next, luminescence in the wells of the plate was measured using the detection device with the excitation wavelength set to 680 nm and the emission detection wavelength set to 615 nm. […]
# A549 = assay: Amount of secreted EVs (ExoScreen / NTA method); format: cell-based, human; details: inhibitor at 10 nmol/L or 100 nmol/L, FIG. 11
# Experimental: For preparation of a secreted EV sample for the ExoScreen method, cells were cultured and supernatant was collected as follows. First, cells were seeded in a 96-well plate using a serum-supplemented medium (the medium according to the type of cells) at 5×10^3 cells/medium 0.1 mL/well (Day 0). After incubation for 24 hours (Day 1), 10 fmol of the miRNA was added, and the cells were transfected with the miRNA using a transfection agent (product name Dhermafect1, manufactured by Dhermacon, the same shall apply hereinafter) according to the instructions for use. […]
# as §1
# EV detection was performed using an exosome marker CD9 or C63 according to the ExoScreen method. EV detection was performed using an AlphaLISA reagent (Perkin Elmer) composed of AlphaScreen streptavidin-coated donor beads (6760002), AlphaLISA unconjugated acceptor beads (6062011), and an AlphaLISA universal buffer (AL001F), a 96-well half-area white plate (6005560, Perkin Elmer), and a detection device EnSpire Alpha 2300 Mutilabel plate reader (Perkin Elmer). […]
structure (smiles),measurement,setting,value
CC(C)(Sc1cc(C(C)(C)C)c(O)c(C(C)(C)C)c1)Sc1cc(C(C)(C)C)c(O)c(C(C)(C)C)c1 [probucol],EV secretion compared with NC,HCT116,particularly effectively boosted EV secretion
same,EV secretion compared with NC,A549,particularly effectively boosted EV secretion
